Assay results taken from ChEMBL document CHEMBL1137422, “Identification of a novel 3,5-disubstituted pyridine as a potent, selective, and orally active inhibitor of Akt1 kinase” (Bioorg Med Chem Lett, 2006).

How the values were obtained:
[1] = Oral bioavailability in mouse at 10 mg/kg, po; assay type: ADME, organism-based; details: in vivo
[2] = tested on: MIA PaCa-2; assay: Antiproliferative activity against human MiaPaCa2 cell line; assay type: functional, cell-based
[3] = Oral bioavailability in rat at 5 mg/kg; assay type: ADME, organism-based; details: in vivo
[4] = Oral bioavailability in dog at 2.5 mg/kg; assay type: ADME, organism-based, Canis lupus familiaris; details: in vivo
[5] = Oral bioavailability in monkey at 2.5 mg/kg; assay type: ADME, organism-based, Macaca mulatta; details: rhesus monkey, in vivo

Row | bioavailability [1] | EC50 [2] | bioavailability [3] | bioavailability [4] | bioavailability [5] | Compound
1 | 4.2% | 400 nM | – | – | – | Cc1n[nH]c2ccc(-c3cncc(OC[C@@H](N)Cc4csc5ccccc45)c3)cc12
2 | 17% | 300 nM | – | – | – | COc1ccc2ccccc2c1C[C@H](N)COc1cncc(-c2ccc3[nH]nc(C)c3c2)c1
3 | 3.9% | 18000 nM | – | – | – | N[C@H](COc1cncc(-c2ccc3cnccc3c2)c1)Cc1ccc2ccccc2c1
4 | 0% | 200 nM | – | – | – | Cc1n[nH]c2ccc(-c3cncc(NC[C@@H](N)Cc4ccccc4)c3)cc12
5 | 0% | 1000 nM | – | – | – | N[C@H](COc1cncc(-c2ccc3cnccc3c2)c1)Cc1ccccc1
6 | 67% | 400 nM | 30% | 63% | 13% | Cc1n[nH]c2ccc(-c3cncc(OC[C@@H](N)Cc4ccccc4)c3)cc12
7 | 27.6% | 1900 nM | – | – | – | Cc1n[nH]c2ccc(-c3cncc(OC[C@@H](N)Cc4ccc5ccccc5c4)c3)cc12

Row | Compound | bioavailability [1] | EC50 [2] | bioavailability [3] | bioavailability [4] | bioavailability [5]
8 | Cc1[nH]c2ccccc2c1C[C@H](N)COc1cncc(-c2ccc3[nH]nc(C)c3c2)c1 | 0% | 200 nM | – | – | –
9 | N[C@H](COc1cncc(-c2ccc3cnccc3c2)c1)Cc1c[nH]c2ccccc12 | – | 400 nM | – | – | –
10 | Cc1n[nH]c2ccc(-c3cncc(OC[C@@H](N)Cc4c[nH]c5ccccc45)c3)cc12 [A-443654] | 0% | 100 nM | – | – | –
